Each compound was assayed against Dual specificity tyrosine-phosphorylation-regulated kinase 1A (Homo sapiens, UniProt Q13627) (assay: DYRK1A Inhibition Assay).
Description: Assay Procedure1. Add 5 μL enzyme & substrate mixture to each well in Column 2-23 and A24-H24 wells of the 384-well assay plate;2. Add 5 μL 0% Phosphorylation control to A1-H1 and I24-P24 wells of the assay plate;3. Add 5 μL 100% Phosphorylation control to I1-P1 wells of the assay plate;4. Spin the assay plate (1000 rpm, 1 minute @23° C.);5. Incubate enzyme with compounds for 15 minutes at 23° C.;6. Add 5 μL ATP solution to each well of the assay plate;7. Spin the plate (1000 rpm, 1 minute @23° C.);8. Incubate the assay plate for 90 minutes at 23° C.;9. Add 10 μL Development reagent A to each well of the assay plate;10. Centrifuge the plate at 1000 rpm about 15 seconds and seal a film over assay plate. Incubate the assay plate for 30 minutes at 23° C.11. Read assay plates on Envision
With `c1cc(-c2ccc3ncn(C4CCCNC4)c3c2)ccn1` (centres undefined) [US20250099442, Compound I.19] the IC50 was 0.01 to 0.1 µM. `O=S(=O)(c1ccc(F)cc1)N1CCCC(n2cnc3ccc(-c4ccncc4)cc32)C1` (centres undefined) [US20250099442, Compound I.39] was tested, and the IC50 was 0.1 to 1 µM. `O=C(O)c1ccc(-c2cnc3n2CCN(c2cccnc2)C3)cc1` [US20250099442, Compound I.78] gave an IC50 of 0.1 to 1 µM. With `CC(C)CN1CCC(C(=O)Nc2cc(-c3cn(C(C)C)c4cnccc34)ccn2)CC1` [US20250099442, Compound I.4] the IC50 was under 0.01 µM. With `CCN1CCC(C(=O)Nc2cc(-c3ccc4c(c3)ncn4C(F)F)ccn2)CC1` [US20250099442, Compound I.94] the IC50 was over 1 µM. Compound `CC(C)CN1CCC(C#Cc2nc3ccc(-c4ccnc(N)c4)nc3n2C2CC2)CC1` [US20250099442, Compound I.99] has an IC50 of 0.01 to 0.1 µM. For `CC(C)CN1CCC(CNc2cc(-c3cn(C(C)C)c4cnccc34)ccn2)CC1` [US20250099442, Compound I.6], the IC50 was 0.01 to 0.1 µM. For `N#Cc1ccc(S(=O)(=O)N2CCCC(n3cnc4ccc(-c5ccncc5)cc43)C2)cc1` (centres undefined) [US20250099442, Compound I.33], the IC50 was 0.1 to 1 µM. In the case of `CN1CCC(Oc2cnc3[nH]cc(-c4cc[nH]c(=O)c4)c3n2)C1` (centres undefined) [US20250099442, Compound I.88], the IC50 is reported as 0.1 to 1 µM. For `CC(C)CN1CCC(C(=O)Nc2cc(-c3ccc4nn(C)cc4c3)ccn2)CC1` [US20250099442, Compound I.18], the IC50 was 0.01 to 0.1 µM. `COc1cc(-c2ccc3nc(NC(=O)C4C5CC4CN(C)C5)sc3c2)ccn1` (centres undefined) [US20250099442, Compound I.43] gave an IC50 of 0.01 to 0.1 µM. For `COc1cccc(-c2nc3cc(NS(C)(=O)=O)cnc3s2)c1` [US20250099442, Compound I.12], the IC50 was over 1 µM. With `O=C(Nc1cc2cc(-c3ccncc3)cn2cn1)C1CCOCC1` [US20250099442, Compound I.63] the IC50 was 0.01 to 0.1 µM. `CN1CCC(C(=O)Nc2ccc3c(-c4ccncc4)c[nH]c3n2)CC1` [US20250099442, Compound I.67] was tested, and the IC50 was under 0.01 µM. `Cc1cc(-c2cnn3cc(-c4ccc5cnccc5c4)n(C)c(=O)c23)ccn1` [US20250099442, Compound I.80] gave an IC50 of 0.1 to 1 µM. With `O=C(OCc1ccccc1)N1CCC(n2cnc3ccc(-c4ccncc4)cc32)CC1` [US20250099442, Compound I.30] the IC50 was 0.01 to 0.1 µM. With `CN1CC2CC(C1)C2C(=O)Nc1nc2ccc(-c3ccncc3)cc2s1` (centres undefined) [US20250099442, Compound I.52] the IC50 was 0.1 to 1 µM. `CC(=O)N1CCCC(n2cnc3ccc(-c4ccncc4)cc32)C1` (centres undefined) [US20250099442, Compound I.23] gave an IC50 of 0.1 to 1 µM. `CC(C)CN1CCC(O)(C#Cc2ccc3c(-c4ccncc4)c[nH]c3n2)CC1` [US20250099442, Compound I.96] was tested, and the IC50 was 0.1 to 1 µM. For `c1cncc(-c2cc3c(-c4ccc5c(c4)CCO5)cncc3o2)c1` [US20250099442, Compound I.11], the IC50 was over 1 µM. In the case of `COc1cc(-c2ccc3nc(NC(=O)C4CN(C)C4)sc3c2)ccn1` [US20250099442, Compound I.46], the IC50 is reported as 0.01 to 0.1 µM. Compound `COCCn1nc2cnccc2c1-c1ccnc(NC(=O)C2CC2)c1` [US20250099442, Compound I.26] has an IC50 of over 1 µM. `CS(=O)(=O)Nc1cnc2sc(-c3cccc(O)c3)nc2c1` [US20250099442, Compound I.13] gave an IC50 of over 1 µM. For `CC(C)CN1CCC(C#Cc2cc(-c3cn(C4CCOCC4)c4cnccc34)ccn2)CC1` [US20250099442, Compound I.100], the IC50 was 0.01 to 0.1 µM. In the case of `c1cc(-c2ccc3nc4n(c3c2)CCNC4)ccn1` [US20250099442, Compound I.48], the IC50 is reported as 0.1 to 1 µM. Compound `CN1CCC(C(=O)Nc2cc(-c3cc(=O)n(C)c4ccccc34)ccn2)CC1` [US20250099442, Compound I.55] has an IC50 of 0.01 to 0.1 µM. `CN1CCC(C(=O)Nc2cc(-c3cc(Cl)cc4ncccc34)ccn2)CC1` [US20250099442, Compound I.56] gave an IC50 of 0.1 to 1 µM. `CN1CCC(C(=O)Nc2nc3ccc(-c4ccncc4)nc3s2)CC1` [US20250099442, Compound I.51] showed an IC50 of under 0.01 µM. `CN1CCC(C#Cc2cc(-c3cn(C4CCOCC4)c4cnccc34)ccn2)CC1` [US20250099442, Compound I.91] showed an IC50 of under 0.01 µM. For `OC1(C#Cc2ccc3c(-c4ccncc4)c[nH]c3n2)CCNCC1` [US20250099442, Compound I.95], the IC50 was 0.1 to 1 µM. In the case of `c1cc(-c2cnc3[nH]cc(C4CCC4)c3c2)ccn1` [US20250099442, Compound I.16], the IC50 is reported as over 1 µM. In the case of `CCCOc1cc(COC2CCN(C)CC2)nc2[nH]cc(-c3ccncc3)c12` [US20250099442, Compound I.85], the IC50 is reported as 0.01 to 0.1 µM. For `CCCOc1cc(COC2CCN(C)CC2)nc2[nH]cc(C(F)(F)F)c12` [US20250099442, Compound II.7], the IC50 was under 0.5 µM. With `NC(=O)c1ccc(-c2cnc3[nH]cc(C4CCC4)c3c2)cc1` [US20250099442, Compound I.15] the IC50 was 0.1 to 1 µM. `CN1CCC(C(=O)Nc2cc(-c3ccc4c(c3)ncn4C)ccn2)CC1` [US20250099442, Compound I.34] was tested, and the IC50 was under 0.01 µM. Compound `CC(C)CN1CCC(CNc2cc(-c3c[nH]c4cnccc34)ccn2)CC1` [US20250099442, Compound I.5] has an IC50 of 0.01 to 0.1 µM. With `CS(=O)(=O)N1CCC[C@@H](n2cnc3ccc(-c4ccncc4)cc32)C1` [US20250099442, Compound I.22] the IC50 was 0.1 to 1 µM. For `CN1CCC(C(=O)Nc2cn3cc(-c4ccncc4)ccc3n2)CC1` [US20250099442, Compound I.42], the IC50 was under 0.01 µM. `CC(C)n1cc(-c2ccncc2)c2ccncc21` [US20250099442, Compound I.2] gave an IC50 of under 0.01 µM. For `c1cncc(-c2ccc3cncc(OC4CCNC4)c3c2)c1` (centres undefined) [US20250099442, Compound I.87], the IC50 was 0.1 to 1 µM. With `CN1C2CCC1CC(C(=O)Nc1nc3ccc(-c4ccncc4)nc3s1)C2` (centres undefined) [US20250099442, Compound I.69] the IC50 was under 0.01 µM. With `Cn1ncc2ccc(-c3cncc(O[C@@H]4Cc5ccccc5[C@@H]4N)c3)cc21` [US20250099442, Compound I.37] the IC50 was 0.1 to 1 µM. `c1cc(-c2ccc3ncsc3c2)c(OC2CCC2)cn1` [US20250099442, Compound I.83] gave an IC50 of 0.1 to 1 µM. `c1cc(-c2ccc3ncn(C4CCNCC4)c3c2)ccn1` [US20250099442, Compound I.31] was tested, and the IC50 was 0.1 to 1 µM. `CC(C)CN1CCC(C(=O)Nc2cc(-c3ccc4c(cnn4C)c3)ccn2)CC1` [US20250099442, Compound I.17] showed an IC50 of 0.01 to 0.1 µM. `CN1CC(C(=O)Nc2nc3ccc(-c4ccncc4)cc3s2)C1` [US20250099442, Compound I.45] showed an IC50 of 0.01 to 0.1 µM. For `CN1CCC(C(=O)Nc2cc3cc(-c4ccncc4)cn3cn2)CC1` [US20250099442, Compound I.58], the IC50 was 0.01 to 0.1 µM. With `C[C@@H]1CC(C(=O)Nc2cn3cc(-c4ccncc4)ccc3n2)C[C@H](C)N1C` (some centres undefined) [US20250099442, Compound I.66] the IC50 was 0.01 to 0.1 µM. Work on `CN1CCC(C(=O)Nc2ncc(-c3ccc4ncn(C)c4c3)s2)CC1` [US20250099442, Compound I.102] yielded an IC50 of 0.01 to 0.1 µM. `CC(C)CN1CCC(C(=O)Nc2nccc(-c3cn(C(C)C)c4cnccc34)n2)CC1` [US20250099442, Compound I.8] showed an IC50 of 0.01 to 0.1 µM. `CN1CCC(C2CN(c3ncc(-c4ccncc4)c4c3C(=O)NC4)C2)CC1` [US20250099442, Compound I.89] gave an IC50 of over 1 µM. Compound `CN1CC2C(C1)C2C(=O)Nc1cc2cc(-c3ccncc3)cn2cn1` (centres undefined) [US20250099442, Compound I.72] has an IC50 of 0.01 to 0.1 µM. `c1ccc(Oc2cc(-c3ccc4c(c3)CCO4)ccn2)cc1` [US20250099442, Compound I.10] showed an IC50 of over 1 µM. Work on `c1cc(-c2ccc3c(c2)CCO3)cc(OCC2CCCCN2)n1` (centres undefined) [US20250099442, Compound I.36] yielded an IC50 of 0.1 to 1 µM.
